Measured values published in US20220324865A1 (Bayer Aktiengesellschaft, priority 2018, published 2022).
Where a name gives a salt, the structure may show the parent alone.

Target: T1, human EP3 receptor (Homo sapiens, UniProt P43115)
T1 construct: expressed in transfected cells; host or cells: CHO K1 (Chinese Hamster Ovary), stably co-transfected with Galpha16 and mitochondrial clytin
T1 sequence (P43115 1-390): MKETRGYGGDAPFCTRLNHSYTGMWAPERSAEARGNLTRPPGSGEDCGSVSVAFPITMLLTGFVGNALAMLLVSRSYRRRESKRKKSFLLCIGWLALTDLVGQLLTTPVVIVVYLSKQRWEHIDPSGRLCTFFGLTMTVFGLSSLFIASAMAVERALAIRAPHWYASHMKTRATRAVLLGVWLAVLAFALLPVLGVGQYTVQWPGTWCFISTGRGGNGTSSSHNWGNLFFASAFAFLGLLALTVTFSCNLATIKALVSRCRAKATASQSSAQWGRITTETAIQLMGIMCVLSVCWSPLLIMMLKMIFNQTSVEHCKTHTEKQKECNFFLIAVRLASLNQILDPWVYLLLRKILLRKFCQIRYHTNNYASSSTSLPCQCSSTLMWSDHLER
Test: Cellular in vitro assay for determining EP3 receptor activity (human EP3 cell line, sulprostone-stimulated calcium luminescence)
Format: cell-based
Settings: CHO cells expressing human EP3 and mitochondrial Clytin; antagonist mode, sulprostone at EC50; read-out: EP3 CHO mtCLY ANTAG IC50
Procedure, shortened: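 CHO K1 cells stably expressing human EP3 with Gα16 and mitochondrial Clytin, loaded overnight with coelenterazine. Compounds added 10 min before sulprostone at its EC50; antagonism read immediately as reduced calcium-driven luminescence, quadruplicate points.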

Compound	IC50 [nM]
Cc1c(C(=O)N[C@H](CO)c2ccccc2)nn2c(C)c(-c3ccc4ccccc4c3)[nH]c(=O)c12 [Example 3-2, N-[(1S)-2-Hydroxy-1-phenylethyl]-3,7-dimethyl-6-(naphthalen-2-yl)-4-oxo-4,5-dihydropyrazolo[1,5-a]pyrazine-2-carboxamide]	1.2
COc1ccc(CNC(=O)c2cc3c(=O)[nH]c(-c4ccc5c(c4)OCCO5)cn3n2)cc1OC [6-76]	1.87
CCN(CCO)CC(NC(=O)c1nn2cc(-c3ccc4ccccc4c3)[nH]c(=O)c2c1C1CC1)c1ccccc1 (stereo not shown) [Example 1-26, 3-Cyclopropyl-N-[2-[ethyl(2-hydroxyethyl)amino]-1-phenylethyl]-6-(2-naphthyl)-4-oxo-5H-pyrazolo[1,5-a]pyrazine-2-carboxamide]	1.4
CC(C)[C@@H](C)NC(=O)c1nn2cc(-c3ccc4ccccc4c3)[nH]c(=O)c2c1C(F)(F)F [6-512]	0.95
Cc1ccc(-c2cn3nc(C(=O)N[C@H]4c5ccccc5C[C@H]4O)c(C(F)(F)F)c3c(=O)[nH]2)cc1Cl [6-185]	2.35
Cc1ccc(-c2cn3nc(C(=O)N[C@@H](C)C(C)C)c(C(F)(F)F)c3c(=O)[nH]2)cc1Cl [6-187]	1.45
Cc1cc(-c2cn3nc(C(=O)NCCC(O)C(F)(F)F)c(C4CC4)c3c(=O)[nH]2)ccc1Cl (single isomer, unassigned) [6-310]	0.91
COc1ccccc1C(C)NC(=O)c1cc2c(=O)[nH]c(-c3ccc4ccccc4c3)cn2n1 (stereo not shown) [Example 2-8, N-[1-(2-Methoxyphenyl)ethyl]-6-(2-naphthyl)-4-oxo-4,5-dihydropyrazolo[1,5-a]pyrazine-2-carboxamide]	1.2
Cc1ccc(-c2cn3nc(C(=O)N[C@H](C)C(C)C)c(C4CC4)c3c(=O)[nH]2)cc1C [Example 1-143, 3-Cyclopropyl-6-(3,4-dimethylphenyl)-N-[(2R)-3-methylbutan-2-yl]-4-oxo-4,5-dihydropyrazolo-[1,5-a]pyrazine-2-carboxamide]	1.5
Cc1ccc(-c2cn3nc(C(=O)NC(CO)C(F)(F)F)c(C(F)(F)F)c3c(=O)[nH]2)cc1Cl (single isomer, unassigned) [6-162]	9.55
Cc1ccc(-c2cn3nc(C(=O)NC4(c5ccc(F)cc5)CN(C5CC5)C4)c(C(F)(F)F)c3c(=O)[nH]2)cc1Cl [6-203]	1.5
COc1ccc(C2(NC(=O)c3cc4c(=O)[nH]c(-c5ccc(C)c(C)c5)cn4n3)CN(C(=O)OC(C)(C)C)C2)cc1 [Example 1-64, tert.-Butyl 3-({[6-(3,4-dimethylphenyl)-4-oxo-4,5-dihydropyrazolo[1,5-a]pyrazin-2-yl]carbonyl}-amino)-3-(4-methoxyphenyl)azetidine-1-carboxylate]	4.55
CCn1cc(Cl)c(CNC(=O)c2nn3cc(-c4cnc5cccc(C)c5c4)[nH]c(=O)c3c2C(C)C)n1 [Example 4-23, N-[(4-Chloro-1-ethyl-1H-pyrazol-3-yl)methyl]-6-(5-methylquinolin-3-yl)-4-oxo-3-(propan-2-yl)-4,5-dihydropyrazolo[1,5-a]pyrazine-2-carboxamide]	1.01
Cc1ccc(-c2cn3nc(C(=O)N[C@H](CN4CC[C@H](F)C4)c4ccccc4)cc3c(=O)[nH]2)cc1F [6-643]	1.95
Cc1c(C(=O)NC2(c3ccc(F)cc3)CCN(CC(F)(F)F)CC2)nn2cc(-c3ccc4ccccc4c3)[nH]c(=O)c12 [6-5]	4.85
Cc1ccc(-c2cn3nc(C(=O)NC4CC4C(C)C)c(C(F)(F)F)c3c(=O)[nH]2)cc1F (single isomer, unassigned) [6-145]	6.25
Cc1ccc(-c2cn3nc(C(=O)N[C@H](C)c4ccc(F)cc4)cc3c(=O)[nH]2)cc1Cl [6-81]	2.8
CC(C)(O)[C@@H](NC(=O)c1cc2c(=O)[nH]c(-c3ccc(Cl)c(Cl)c3)cn2n1)c1ccc(F)cc1 [6-636]	7.63
O=C(NCc1ccc(F)c(F)c1)c1cc2c(=O)[nH]c(-c3ccc4ccccc4c3)cn2n1 [Example 2-33, N-(3,4-Difluorbenzyl)-6-(2-naphthyl)-4-oxo-4,5-dihydropyrazolo[1,5-a]pyrazine-2-carboxamide]	1.5
O=C(NC1(c2ccc(F)cc2)CN(CC(F)F)C1)c1nn2cc(-c3ccc(Cl)c(F)c3)[nH]c(=O)c2c1C1CC1 [6-108]	1.3
O=C(NC(CO)c1ccc2c(c1)OCO2)c1cc2c(=O)[nH]c(-c3ccc4ccccc4c3)cn2n1 (stereo not shown) [Example 2-28, N-[1-(1,3-Benzodioxol-5-yl)-2-hydroxyethyl]-6-(2-naphthyl)-4-oxo-4,5-dihydropyrazolo[1,5-a]pyrazine-2-carboxamide]	0.93
CC(NC(=O)c1cc2c(=O)[nH]c(-c3ccc4ccccc4c3)cn2n1)c1ccc(S(N)(=O)=O)cc1 (stereo not shown) [Example 2-37, 6-(2-Naphthyl)-4-oxo-N-[1-(4-sulfamoylphenyl)ethyl]-4,5-dihydropyrazolo[1,5-a]pyrazine-2-carboxamide]	4.5

Compound	IC50 [nM]
COc1ccc(CCNC(=O)c2cc3c(=O)[nH]c(-c4ccc5c(c4)N(C)CCO5)cn3n2)cc1OC [6-86]	1.95
COc1ccc(CNC(=O)c2nn3cc(-c4ccc5ccccc5c4)[nH]c(=O)c3c2C(C)C)cc1OC [Example 1-10, N-(3,4-Dimethoxybenzyl)-6-(naphthalen-2-yl)-4-oxo-3-(propan-2-yl)-4,5-dihydropyrazolo[1,5-a]-pyrazine-2-carboxamide]	0.58
Cc1nn(C(C)CNC(=O)c2cc3c(=O)[nH]c(-c4ccc5ccccc5c4)cn3n2)cc1Cl (stereo not shown) [Example 2-18, N-[2-(4-Chlor-3-methyl-1H-pyrazol-1-yl)propyl]-6-(2-naphthyl)-4-oxo-4,5-dihydropyrazolo[1,5-a]pyrazine-2-carboxamide]	2.2
Cc1cc(-c2cn3nc(C(=O)NCC(C)(N)C(F)(F)F)c(C4CC4)c3c(=O)[nH]2)ccc1Cl (racemic) [6-319]	1.17
O=C(N[C@H](CCO)c1ccc(F)cc1)c1cc2c(=O)[nH]c(-c3ccc4c(c3)CCCC4)cn2n1 [Example 1-100, N-[(1R)-1-(4-Fluorophenyl)-3-hydroxypropyl]-4-oxo-6-(5,6,7,8-tetrahydronaphthalen-2-yl)-4,5-dihydropyrazolo[1,5-a]pyrazine-2-carboxamide]	0.965
Cc1cc(-c2cn3nc(C(=O)N[C@H](C)C4CC4)c(C(C)C)c3c(=O)[nH]2)ccc1Cl [6-609]	1.5
Cc1ccc(-c2cn3nc(C(=O)N[C@@H](c4ccc(F)cc4)[C@@H](O)C(F)(F)F)c(C4CC4)c3c(=O)[nH]2)cc1Cl [6-273]	1.1
CC[C@@H](C)NC(=O)c1nn2cc(-c3ccc4ccccc4c3)[nH]c(=O)c2c1C(F)(F)F [6-511]	0.59
O=C(N[C@@H](c1ccc(F)cc1)C(F)(F)CO)c1nn2cc(-c3ccc(C(F)(F)F)c(F)c3F)[nH]c(=O)c2c1C1CC1 [6-601]	4.25
COc1ccc(C2(NC(=O)c3cc4c(=O)[nH]c(-c5ccc6ccccc6c5)cn4n3)CN(C)C2)cc1 [Example 1-59, N-[3-(4-Methoxyphenyl)-1-methylazetidin-3-yl]-6-(naphthalen-2-yl)-4-oxo-4,5-dihydropyrazolo-[1,5-a]pyrazine-2-carboxamide formic acid salt]	5.9
Cc1cc(-c2cn3nc(C(=O)NC4(c5ccccc5)CCOCC4)c(C4CC4)c3c(=O)[nH]2)ccc1Cl [6-342]	1.07
Cc1cc(-c2cn3nc(C(=O)NCC(O)C(F)(F)F)c(C4CC4)c3c(=O)[nH]2)ccc1Cl (racemic) [6-312]	1.3
CC(C)C(NC(=O)c1cc2c(=O)[nH]c(-c3ccc4ccccc4c3)cn2n1)c1ccc(F)cc1 (stereo not shown) [Example 2-48, N-[1-(4-Fluorophenyl)-2-methylpropyl]-6-(2-naphthyl)-4-oxo-4,5-dihydropyrazolo[1,5-a]pyrazine-2-carboxamide]	3.6
Cc1ccc(-c2cn3nc(C(=O)N[C@@H](c4ccc(F)cc4)C(F)(F)CO)c(C4CC4)c3c(=O)[nH]2)cc1Cl [6-256]	1.1
O=C(NC(CCn1cncn1)c1ccccc1)c1cc2c(=O)[nH]c(-c3ccc4c(c3)OCCO4)cn2n1 (stereo not shown) [6-47]	2.17
Cc1ccc(-c2cn3nc(C(=O)NC(CCO)c4ccc(C(F)(F)F)cc4)cc3c(=O)[nH]2)cc1C (stereo not shown) [Example 1-86, 6-(3,4-Dimethylphenyl)-N-[3-hydroxy-1-[4-(trifluoromethyl)phenyl]propyl]-4-oxo-5H-pyrazolo-[1,5-a]pyrazine-2-carboxamide]	0.715
NC(=O)[C@H](NC(=O)c1cc2c(=O)[nH]c(-c3ccc4ccccc4c3)cn2n1)c1ccccc1 [6-84]	5.4
CC(NC(=O)c1cc2c(=O)[nH]c(-c3ccc4ccccc4c3)cn2n1)c1ccc(C(C)(C)C)cc1 (stereo not shown) [Example 2-40, N-[1-(4-tert.-Butylphenyl)ethyl]-6-(2-naphthyl)-4-oxo-4,5-dihydropyrazolo[1,5-a]pyrazine-2-carboxamide]	3.15
Cc1cc(-c2cn3nc(C(=O)N[C@@H](C)C4CC4)c(C4CC4(F)F)c3c(=O)[nH]2)ccc1Cl (stereo partly shown) [6-550]	0.84
CC(C)(O)[C@@H](NC(=O)c1nn2cc(-c3ccc(Cl)c(F)c3)[nH]c(=O)c2c1C1CC1(F)F)c1ccc(F)cc1 (stereo partly shown) [6-564]	4.05
COC[C@@H](NC(=O)c1nn2cc(-c3ccc(C(F)(F)F)c(C)c3)[nH]c(=O)c2c1C1CC1)c1ccccc1 [6-135]	2.55
